Results from patent publication US9182397B2, “Immunoassay for detecting antibiotics” (DSM IP ASSETS B.V., priority 2011, dated 2015).

Key:
Design in all cases: key: 0: no intensity; 1: low intensity; 2: medium intensity; 3: high intensity
[1] = tested on: Penicillin binding protein purified from Bacillus stearothermophilus; test: Detection of Penicillin G, test done at different temperatures (Example 29)
Method: (§1) A nitrocellulose HF90 membrane (Millipore; length 25 mm) was used as a detection region. The membrane was glued to a polystyrene laminated card (thickness 0.254 mm) 8 mm from the proximal end of the card. Next, the detection zone and control zone were applied onto the nitrocellulose membrane. The detection zone was applied by dispensing 1 mg/ml of a 7ACA-spacer-BSA conjugate in 20 mM KPO4-buffer (pH 7.5) with a Biodot Dispense workstation XYZ 3050 with frontline at 0.2 μl/cm. The control zone was applied by dispensing 0.15 mg/ml of an anti-IgY antibody in 20 mM KPO4-buffer (pH 7.5) comprising 0.675 mg/ml BSA, 5% w/v saccharose and 20 mM NaCl with a Biodot Dispense workstation XYZ 3050 with frontline at 0.8 μl/cm. After drying of the zones, the nitrocellulose membrane was blocked by spraying a solution comprising 10 mM Tris buffer (pH 8) comprising 2% w/v BSA and 0.05% w/v Tween-20 using a Biodot Dispense workstation XYZ 3050 with airjet 3×. The solution was sprayed onto the membrane at a distance of 2 mm below the detection zone. Thereafter, the sample receiving region (VF2 membrane from Millipore; length 1 cm) was glued at the proximal end of the card overlapping 2 mm with the nitrocellulose membrane. The absorbing region (10038 membrane from Millipore; length 20 mm) was glued at the distal end of the card with an overlap of 2 mm on the nitrocellulose membrane. The obtained cards were dried at 37° C. in a dry atmosphere (0% relative humidity). The card was cut in strips of 5.2 mm width and kept at a dry atmosphere (0% relative humidity).
(§2) Streptavidin-coated gold particles were synthesized by reacting colloidal gold (diameter 40 nm; 1 OD/ml) with 10 μg/ml streptavidin. Next, the obtained solution was concentrated by tangential flow filtration, washed and stored in a Tris buffer (pH 8) including NaCN. Penicillin binding protein purified from Bacillus stearothermophilus was biotinylated (1:4) with D-biotinyl-epsilon-aminocaproic acid-N-hydroxysuccinimide ester. Next, the penicillin binding protein-gold conjugate was synthesized by reacting 1.5 μg biotinylated penicillin binding protein with 1 OD streptavidin-coated gold particles for 1 hour, followed by centrifugation at 10,000×g for 5 minutes and resuspension of the obtained pellet in 45 mM bicarbonate buffer comprising 0.1% w/v Triton X-100 (pH 9.6).
(§3) Thereafter, 140-200 mOD of the penicillin binding protein-gold conjugate and 5-20 mOD of the IgY-gold conjugate was solubilized in 100 μl buffer (80 mM Tris buffer comprising 0.01% w/v Triton-X-100, 0.4% w/v BSA, 5% v/v glycerin and 2% w/v saccharose (pH 8.5)) and 0.75 μl of the solution was dispensed per tube and dried for 12 hours at 40° C. The obtained tubes were sealed.
(§4) 150 μl of spiked milk was added per tube containing the dried conjugates. The concentration of penicillin G in the added milk varied from 0 to 4 ng/g (tube 1: 0 ng/g; […]; tube 2: 2 ng/g; tube 3: 3 ng/g; and tube 4: 4 ng/g). The obtained liquid composition was incubated for 2 minutes at 64° C. in an incubator. A test device was put into the tube and incubated for 3 minutes at 64° C. in the incubator. The result was read by eye.
The test was done essentially as described in Example 3, with the proviso that the test was done at different temperatures (4° C., 20° C. or 31.5° C.).

[2] = tested on: Penicillin binding protein purified from Bacillus stearothermophilus; test: Detection of Penicillin G after storage of the test device at −20° C. or 30° C. (Example 26)
Method: as §1, §2, §3, §4
The test devices were produced as described above in Examples 1 and 2 and stored at different temperatures (−20° C. and 30° C.). At different time periods after production, the test device was used to detect penicillin G. The test was done essentially as described in Example 3.

[3] = tested on: Penicillin binding protein purified from Bacillus stearothermophilus; test: Detection of Penicillin G in different dairy matrices (Example 24)
Method: as §1, §2, §3, §4
The test was done essentially as described in Example 3. Instead of raw milk, different dairy matrices were tested. All liquid matrices were measured as such and all powders were first dispersed in water. For milk powder 20 g was dispersed in 250 g distilled water and for whey powder 7.1 g was dispersed in 100 g distilled water.

[4] = tested on: Penicillin binding protein purified from Bacillus stearothermophilus; test: Detection of Penicillin G with milk having a different initial temperature (Example 30)
Method: as §1, §2, §3, §4
The test was done essentially as described in Example 3, with the proviso that the test was done with milk having an initial different temperature (0° C., 4° C., 20° C. or 45° C.). The milk was allowed to reach room temperature shortly before the test was done.

Intensity of detection zone ([1]; Pen G 3 ppb, test done at temperature 4 ° C.): 2
Intensity of detection zone ([1]; Pen G 3 ppb, test done at temperature 20 ° C.): 2
Intensity of detection zone ([1]; Pen G 3 ppb, test done at temperature 31.5 ° C.): 2
Intensity of detection zone ([1]; Pen G 4 ppb, test done at temperature 4 ° C.): 1
Intensity of detection zone ([1]; Pen G 4 ppb, test done at temperature 20 ° C.): 1
Intensity of detection zone ([1]; Pen G 4 ppb, test done at temperature 31.5 ° C.): 1
Intensity of detection zone ([2]; Pen G 3 ppb, test device stored 0 days at 30° C.): 2
Intensity of detection zone ([2]; Pen G 3 ppb, test device stored 0 days at −20° C.): 2
Intensity of detection zone ([2]; Pen G 3 ppb, test device stored 3 days at 30° C.): 2
Intensity of detection zone ([2]; Pen G 3 ppb, test device stored 3 days at −20° C.): 2
Intensity of detection zone ([2]; Pen G 3 ppb, test device stored 7 days at 30° C.): 2
Intensity of detection zone ([2]; Pen G 3 ppb, test device stored 7 days at −20° C.): 2
Intensity of detection zone ([2]; Pen G 3 ppb, test device stored 28 days at 30° C.): 1
Intensity of detection zone ([2]; Pen G 3 ppb, test device stored 28 days at −20° C.): 2
Intensity of detection zone ([2]; Pen G 4 ppb, test device stored 0 days at 30° C.): 1
Intensity of detection zone ([2]; Pen G 4 ppb, test device stored 0 days at −20° C.): 1
Intensity of detection zone ([2]; Pen G 4 ppb, test device stored 3 days at 30° C.): 1
Intensity of detection zone ([2]; Pen G 4 ppb, test device stored 3 days at −20° C.): 1
Intensity of detection zone ([2]; Pen G 4 ppb, test device stored 7 days at 30° C.): 1
Intensity of detection zone ([2]; Pen G 4 ppb, test device stored 7 days at −20° C.): 1
Intensity of detection zone ([2]; Pen G 4 ppb, test device stored 28 days at 30° C.): 0
Intensity of detection zone ([2]; Pen G 4 ppb, test device stored 28 days at −20° C.): 1
Intensity of detection zone ([3]; Pen G 3 ppb, Cocoa): 2
Intensity of detection zone ([3]; Pen G 3 ppb, Cream 10%): 2
Intensity of detection zone ([3]; Pen G 3 ppb, Cream 40%): 2
Intensity of detection zone ([3]; Pen G 3 ppb, Frozen raw buffalo milk (0 ppb gave 1)): 1
Intensity of detection zone ([3]; Pen G 3 ppb, Frozen raw goat milk (0 ppb gave 1)): 1
Intensity of detection zone ([3]; Pen G 3 ppb, Frozen raw milk): 2
Intensity of detection zone ([3]; Pen G 3 ppb, Frozen raw sheep milk (0 ppb gave 1)): 1
Intensity of detection zone ([3]; Pen G 3 ppb, Low fat UHT milk): 2
Intensity of detection zone ([3]; Pen G 3 ppb, Low fat processed milk): 2
Intensity of detection zone ([3]; Pen G 3 ppb, Milk powder (20 g dispersed in 250 g distilled water)): 2
Intensity of detection zone ([3]; Pen G 3 ppb, Pasteurized milk): 2
Intensity of detection zone ([3]; Pen G 3 ppb, UHT milk): 2
Intensity of detection zone ([3]; Pen G 3 ppb, Whey pH 4.5 (0 ppb and control zone gave 0)): 0
Intensity of detection zone ([3]; Pen G 3 ppb, Whey powder (7.1 g dispersed in 100 g distilled water)): 2
Intensity of detection zone ([3]; Pen G 4 ppb, Cocoa): 1
Intensity of detection zone ([3]; Pen G 4 ppb, Cream 10%): 1
Intensity of detection zone ([3]; Pen G 4 ppb, Cream 40%): 2
Intensity of detection zone ([3]; Pen G 4 ppb, Frozen raw buffalo milk (0 ppb gave 1)): 0
Intensity of detection zone ([3]; Pen G 4 ppb, Frozen raw goat milk (0 ppb gave 1)): 0
Intensity of detection zone ([3]; Pen G 4 ppb, Frozen raw milk): 1
Intensity of detection zone ([3]; Pen G 4 ppb, Frozen raw sheep milk (0 ppb gave 1)): 0
Intensity of detection zone ([3]; Pen G 4 ppb, Low fat UHT milk): 1
Intensity of detection zone ([3]; Pen G 4 ppb, Low fat processed milk): 1
Intensity of detection zone ([3]; Pen G 4 ppb, Milk powder (20 g dispersed in 250 g distilled water)): 1
Intensity of detection zone ([3]; Pen G 4 ppb, Pasteurized milk): 1
Intensity of detection zone ([3]; Pen G 4 ppb, UHT milk): 1
Intensity of detection zone ([3]; Pen G 4 ppb, Whey pH 4.5 (0 ppb and control zone gave 0)): 0
Intensity of detection zone ([3]; Pen G 4 ppb, Whey powder (7.1 g dispersed in 100 g distilled water)): 1
Intensity of detection zone ([4]; Pen G 3 ppb, initial milk temperature 0 ° C.): 2
Intensity of detection zone ([4]; Pen G 3 ppb, initial milk temperature 4 ° C.): 2
Intensity of detection zone ([4]; Pen G 3 ppb, initial milk temperature 20 ° C.): 2
Intensity of detection zone ([4]; Pen G 3 ppb, initial milk temperature 45 ° C.): 2
Intensity of detection zone ([4]; Pen G 4 ppb, initial milk temperature 0 ° C.): 1
Intensity of detection zone ([4]; Pen G 4 ppb, initial milk temperature 4 ° C.): 1
Intensity of detection zone ([4]; Pen G 4 ppb, initial milk temperature 20 ° C.): 1
Intensity of detection zone ([4]; Pen G 4 ppb, initial milk temperature 45 ° C.): 1
SMILES: CC1(C)S[C@@H]2[C@H](NC(=O)Cc3ccccc3)C(=O)N2[C@H]1C(=O)O [Penicillin G]
